# According to patent publication US6900010B2, “Compositions and methods for detecting human immunodeficiency virus” (MUSC Foundation For Research Development, priority 1999, dated 2005):
# Tested on: HIV (strain GRCSF) in HeLaD4R4 cells
# Test: HIV infection of HeLaD4R4 cells with lacZ reporter, X-gal staining
# Type: cell-based
# Excerpt: A recombinant cell line was established from human cervical cancer HeLa cells. The HeLa cells were cotransfected with an expression vector (pRepD4R4) and a vector (pTAR3Clac) at a 1:1 ratio. As shown in FIG. 2A the expression vector pRepD4R4 includes CD4 receptor and CXCR4 receptor genes that are separated by an IRES sequence. As shown FIG. 2B the vector pTAR3Clac includes a reporter sequence comprising a promoter region that includes three copies of TAR sequences and a CMV basic promoter, and a lacZ reporter gene whose expression is under the control of the promoter. The stably-transfected cells were selected by culturing in medium containing G418 at 900 μg/ml. Each clone of the cells selected was subsequently cultured in duplicates, and one of the duplicates was infected with a low titer HIV stock solution. The low-titer HIV stock was collected from supernatant of a HeLa cell culture that was transfected with a B-cell tropic HIV provirus DNA (strain GRCSF) and incubated for 3 days post transfection.
# Upon infection of HIV contained in the stock solution, Tat protein expressed from the viral genome binds to TAR and induces expression of lacZ reporter gene to produce high level of β-galactosidase. The cell clones expressing β-galactosidase and stained blue with X-gal were identified, and the cells from the uninfected duplicate of the darkest blue colony were propagated. […]
smiles,measurement,setting,value
"Cc1cn([C@H]2C[C@H](N=[N+]=[N-])[C@@H](CO)O2)c(=O)[nH]c1=O [AZT, zidovudine]",cells infected and stained blue (HIV replication and infection),"AZT 100 μg/ml, four days of incubation, HeLaD4R4 cells",only a few clusters of cells were infected and stained blue
same,expression of the reporter gene,"in the presence of AZT, FIG. 3F compared with FIGS. 3B-3E",significantly reduced
